Assay results from doi:10.64898/2026.09.14.751502v1 (bioRxiv, 2026).

Target: RBP4 (Homo sapiens, UniProt P02753)
Conditions: read-out: RBP4 – SPA IC50

## Cc1cc(-c2nnn[nH]2)nc(N2C[C@H]3C[C@@H](c4ccccc4C(F)(F)F)C[C@H]3C2)n1 [BPN-15585]
  IC50: 7.5 nM

## O=C(c1nc2ncccn2n1)N1C[C@H]2C[C@@H](c3ccccc3OC(F)(F)F)C[C@H]2C1 [compound 93]
  IC50: 41 nM
